Test results: patent publication US11129822B2 (priority 2016, dated 2021)

Assays:
[1] = tested on: Sprague Dawley rats; conditions: rat, in vivo; cited from earlier work
[2] = tested on: Sprague Dawley rats; conditions: rat, in vivo

CN(C)C(=O)Oc1ccc[n+](C)c1 [pyridostigimine]
pyridostigmine-induced signs of toxicity [1]: ocular discharge, nasal discharge, hypoactivity, prostration, ataxia, diarrhea, hunched posture, thin appearance and death | side effects in treated rats [2]: no side effects
